For 44 compounds, IC50 results are on record in patent US20140120083A1, “TREATMENT OF CANCERS USING PI3 KINASE ISOFORM MODULATORS” (INFINITY PHARMACEUTICALS, INC., priority 2012, published 2014).

What all share (format): biochemical
Assay [1] addresses PI3K δ (Homo sapiens, UniProt O00329). Nature of the assay: In vitro IC50, PI3K δ. More on the design: purchased Upstate. An excerpt: (§1) An exemplary system is PI 3-Kinase (human) HTRF™ Assay from Upstate.
Assay [2] addresses T1, PI3K α (Homo sapiens, UniProt P42336).
T1 construct: purchased Upstate
The assay is described as follows: In vitro IC50, PI3K α.
From the text: as §1

The target of assay [3] is T2, PI3K γ (Homo sapiens, UniProt P48736).
T2 construct: purchased Sigma
T2 sequence (P48736 whole entry): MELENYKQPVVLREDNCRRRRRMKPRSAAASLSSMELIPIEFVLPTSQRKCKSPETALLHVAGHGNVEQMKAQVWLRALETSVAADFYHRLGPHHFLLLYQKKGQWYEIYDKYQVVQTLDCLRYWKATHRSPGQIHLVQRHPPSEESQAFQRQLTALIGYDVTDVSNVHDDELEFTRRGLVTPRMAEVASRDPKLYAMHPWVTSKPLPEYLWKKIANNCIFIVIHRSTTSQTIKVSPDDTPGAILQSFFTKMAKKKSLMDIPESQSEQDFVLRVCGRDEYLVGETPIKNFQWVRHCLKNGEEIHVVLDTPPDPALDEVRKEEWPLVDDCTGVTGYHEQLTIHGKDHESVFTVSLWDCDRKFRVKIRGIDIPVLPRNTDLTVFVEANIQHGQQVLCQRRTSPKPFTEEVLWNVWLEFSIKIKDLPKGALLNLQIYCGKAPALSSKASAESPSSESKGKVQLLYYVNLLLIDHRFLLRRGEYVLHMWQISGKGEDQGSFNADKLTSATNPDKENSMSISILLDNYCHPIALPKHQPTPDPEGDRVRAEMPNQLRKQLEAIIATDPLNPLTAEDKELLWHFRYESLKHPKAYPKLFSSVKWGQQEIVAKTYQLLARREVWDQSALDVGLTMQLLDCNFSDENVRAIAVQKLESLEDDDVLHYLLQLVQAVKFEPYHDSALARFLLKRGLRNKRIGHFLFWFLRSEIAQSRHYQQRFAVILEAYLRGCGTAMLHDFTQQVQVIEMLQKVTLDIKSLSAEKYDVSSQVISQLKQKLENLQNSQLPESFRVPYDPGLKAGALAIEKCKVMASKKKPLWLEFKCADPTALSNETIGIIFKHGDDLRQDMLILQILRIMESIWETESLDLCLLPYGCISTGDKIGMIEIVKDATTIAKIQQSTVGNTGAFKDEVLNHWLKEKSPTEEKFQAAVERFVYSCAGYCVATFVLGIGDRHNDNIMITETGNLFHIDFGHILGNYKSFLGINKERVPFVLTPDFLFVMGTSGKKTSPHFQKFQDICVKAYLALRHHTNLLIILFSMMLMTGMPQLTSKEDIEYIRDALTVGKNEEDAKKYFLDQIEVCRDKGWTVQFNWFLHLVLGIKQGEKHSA
The assay is described as follows: In vitro IC50, PI3K γ.
From the text: as §1

Chain of PI3K δ (O00329 whole entry): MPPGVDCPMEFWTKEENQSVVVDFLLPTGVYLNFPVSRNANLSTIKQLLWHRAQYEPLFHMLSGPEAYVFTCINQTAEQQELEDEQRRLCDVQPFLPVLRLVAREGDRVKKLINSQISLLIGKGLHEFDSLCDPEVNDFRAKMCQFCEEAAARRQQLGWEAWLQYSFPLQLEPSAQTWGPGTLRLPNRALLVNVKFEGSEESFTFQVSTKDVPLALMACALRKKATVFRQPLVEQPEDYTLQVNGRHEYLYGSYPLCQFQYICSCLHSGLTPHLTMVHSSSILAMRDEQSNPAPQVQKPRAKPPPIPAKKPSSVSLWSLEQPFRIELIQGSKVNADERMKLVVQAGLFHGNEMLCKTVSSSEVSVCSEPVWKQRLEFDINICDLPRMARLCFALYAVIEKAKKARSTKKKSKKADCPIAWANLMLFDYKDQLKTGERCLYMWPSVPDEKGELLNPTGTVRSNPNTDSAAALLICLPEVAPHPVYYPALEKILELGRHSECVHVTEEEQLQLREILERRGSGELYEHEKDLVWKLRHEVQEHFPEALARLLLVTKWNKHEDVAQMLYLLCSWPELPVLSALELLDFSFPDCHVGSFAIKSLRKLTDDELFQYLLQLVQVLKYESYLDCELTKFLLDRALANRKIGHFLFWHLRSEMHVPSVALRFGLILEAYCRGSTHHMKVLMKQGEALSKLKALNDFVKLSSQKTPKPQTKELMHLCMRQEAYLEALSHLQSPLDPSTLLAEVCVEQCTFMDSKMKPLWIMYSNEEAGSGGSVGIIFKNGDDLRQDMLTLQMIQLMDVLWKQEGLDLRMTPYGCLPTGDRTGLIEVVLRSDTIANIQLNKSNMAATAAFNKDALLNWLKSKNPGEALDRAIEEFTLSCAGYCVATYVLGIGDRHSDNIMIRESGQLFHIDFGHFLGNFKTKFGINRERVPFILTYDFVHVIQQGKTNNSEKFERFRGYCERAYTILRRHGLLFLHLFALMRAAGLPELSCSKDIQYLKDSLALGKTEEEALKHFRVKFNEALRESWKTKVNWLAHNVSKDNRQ
Chain of PI3K δ (P27986 whole entry partner): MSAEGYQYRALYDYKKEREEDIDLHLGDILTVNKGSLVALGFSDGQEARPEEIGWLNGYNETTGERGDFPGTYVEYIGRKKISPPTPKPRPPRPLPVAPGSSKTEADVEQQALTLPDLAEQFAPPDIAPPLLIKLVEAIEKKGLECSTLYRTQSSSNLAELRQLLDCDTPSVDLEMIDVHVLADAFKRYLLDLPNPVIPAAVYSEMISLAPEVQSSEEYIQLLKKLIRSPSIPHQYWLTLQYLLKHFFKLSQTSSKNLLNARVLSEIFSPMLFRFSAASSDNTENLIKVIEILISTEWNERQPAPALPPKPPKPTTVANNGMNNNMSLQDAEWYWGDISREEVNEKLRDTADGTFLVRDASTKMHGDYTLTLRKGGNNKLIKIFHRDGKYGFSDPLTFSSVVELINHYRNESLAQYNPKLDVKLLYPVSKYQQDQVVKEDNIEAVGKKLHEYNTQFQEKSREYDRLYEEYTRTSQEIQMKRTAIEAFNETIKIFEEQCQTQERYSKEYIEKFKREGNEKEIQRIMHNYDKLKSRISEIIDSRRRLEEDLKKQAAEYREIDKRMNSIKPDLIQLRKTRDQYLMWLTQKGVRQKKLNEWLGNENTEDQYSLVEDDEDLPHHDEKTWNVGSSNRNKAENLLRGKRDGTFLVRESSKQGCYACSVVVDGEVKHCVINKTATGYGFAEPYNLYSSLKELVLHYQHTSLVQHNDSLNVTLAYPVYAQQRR
T1 sequence (P42336 whole entry): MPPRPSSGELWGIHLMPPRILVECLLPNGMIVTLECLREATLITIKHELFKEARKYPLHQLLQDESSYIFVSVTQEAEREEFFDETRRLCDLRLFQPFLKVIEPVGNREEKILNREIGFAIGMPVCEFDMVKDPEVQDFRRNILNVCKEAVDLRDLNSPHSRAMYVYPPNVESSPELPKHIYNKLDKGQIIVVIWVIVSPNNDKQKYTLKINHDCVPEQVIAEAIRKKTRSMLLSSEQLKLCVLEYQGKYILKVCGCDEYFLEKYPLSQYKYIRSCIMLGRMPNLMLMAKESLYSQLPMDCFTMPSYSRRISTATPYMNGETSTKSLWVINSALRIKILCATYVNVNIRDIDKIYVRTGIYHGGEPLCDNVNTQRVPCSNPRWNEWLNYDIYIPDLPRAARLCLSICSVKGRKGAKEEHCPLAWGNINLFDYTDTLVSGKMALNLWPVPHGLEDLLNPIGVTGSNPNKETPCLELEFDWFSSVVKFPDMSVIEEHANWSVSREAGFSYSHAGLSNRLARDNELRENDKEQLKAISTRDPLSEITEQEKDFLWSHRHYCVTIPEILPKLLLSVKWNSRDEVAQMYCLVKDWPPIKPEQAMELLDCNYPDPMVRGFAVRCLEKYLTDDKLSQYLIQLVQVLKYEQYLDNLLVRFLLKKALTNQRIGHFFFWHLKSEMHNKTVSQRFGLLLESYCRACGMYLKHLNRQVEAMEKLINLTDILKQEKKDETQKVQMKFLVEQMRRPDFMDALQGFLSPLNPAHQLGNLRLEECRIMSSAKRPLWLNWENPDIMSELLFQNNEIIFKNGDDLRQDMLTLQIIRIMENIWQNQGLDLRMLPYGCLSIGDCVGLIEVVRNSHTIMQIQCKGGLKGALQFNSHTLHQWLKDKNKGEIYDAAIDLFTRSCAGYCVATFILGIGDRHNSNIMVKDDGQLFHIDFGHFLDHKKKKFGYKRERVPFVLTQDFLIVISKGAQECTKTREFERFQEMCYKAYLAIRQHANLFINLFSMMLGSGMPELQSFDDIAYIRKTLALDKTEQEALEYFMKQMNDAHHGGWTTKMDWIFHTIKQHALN
T1 sequence (P27986 whole entry partner): as the sequence (P27986 whole entry partner) above

Take `Cc1cccc2cc(Cn3nc(-c4cccc(O)c4)c4c(N)ncnc43)n(C)c(=O)c12` [Compound 124]: in assay [1], the IC50 (as a rule, the concentration at which inhibition is half-maximal) is under 0.1 µM.
Still for that read-out and setting: under `CC(C)n1c(Cn2nc(-c3cccc(O)c3)c3c(N)ncnc32)cc2ccccc2c1=O` [Compound 135] stands under 0.1 µM.
With `Cc1cccc2cc([C@H](C)Nc3c(C#N)cnc4ccccc34)n(-c3ccccc3)c(=O)c12` [Compound 246], the IC50 in assay [2] is over 10 µM; in assay [3], under 10 µM; in assay [1], under 10 µM.
Turning to `Cc1cccc2cc(C(C)Nc3ncnc4[nH]cnc34)n(CCN3CCCC3)c(=O)c12` (stereo not shown) [Compound 233], the half-inhibitory concentration (IC50) in assay [3] is over 10 µM; in assay [1], under 0.1 µM.
With `Cc1ccccc1-n1c(Cn2nc(C(F)F)c3c(N)ncnc32)cc2cccc(C)c2c1=O` [Compound 306], the IC50 in assay [3] and in assay [1] was under 0.1 µM throughout.
In turn, `Cc1cccc2cc(Cn3nc(-c4cc(O)cc(F)c4)c4c(N)ncnc43)n(C)c(=O)c12` [Compound 125] gave an IC50 in assay [1] of under 0.1 µM.
With `Cc1cccc2cc(C(C)Nc3ncnc4[nH]cnc34)n(CCN3CCOCC3)c(=O)c12` (stereo not shown) [Compound 232], the values for the IC50 in assay [3] and in assay [1] were under 10 µM and under 0.1 µM, respectively.
As for `Cc1cccc2cc(Cn3nc(-c4ccc5nc(N)oc5c4)c4c(N)ncnc43)n(-c3ccccc3)c(=O)c12` [Compound 236], the IC50 in assay [3] and in assay [1] was under 1 µM each time.
The compound `CC(Nc1ncnc2[nH]cnc12)c1cc2ccccc2c(=O)n1C1CCN(C)CC1` (stereo not shown) [Compound 225] came in with a concentration for half-maximal inhibition (IC50) in assay [1] of under 1 µM.
Regarding `CC(C)n1c(Cn2nc(-c3cc(O)cc(F)c3)c3c(N)ncnc32)cc2cccc(F)c2c1=O` [Compound 134], the IC50 in assay [1] was under 0.1 µM.
For `Cc1cccc2cc(Cn3cnc4c(N)ncnc43)n(-c3ccccc3F)c(=O)c12` [Compound 1], the IC50 was over 10 µM in assay [3] and under 10 µM in assay [1].
In the case of `Cc1cccc2cc(Cn3nc(C(N)=O)c4c(N)ncnc43)n(-c3ccccc3)c(=O)c12` [Compound 307], the figures for the IC50 in assay [3] and in assay [1] were under 10 µM and under 1 µM, respectively.
Take `Cc1cccc2cc(C(C)Nc3ncnc4[nH]cnc34)n(-c3cccc(F)c3)c(=O)c12` (stereo not shown) [Compound 229]: the values for the IC50 in assay [3] and in assay [1] were under 1 µM and under 0.1 µM, respectively.
Take `Cc1cccc2cc([C@H](C)Nc3ncnc4[nH]cnc34)n(-c3ccccc3)c(=O)c12` [Compound 196]: the IC50 in assay [3] and in assay [1] was under 0.1 µM in each case.
With `CC(C)n1c(Cn2nc(I)c3c(N)ncnc32)cc2ccccc2c1=O` [Compound 129], in assay [1], the IC50 is under 10 µM.
In turn, `CNC(=O)c1cccc(-c2nn(Cc3cc4cccc(C)c4c(=O)n3-c3ccccc3C)c3ncnc(N)c23)c1` [Compound 120] gave an IC50 in assay [1] of under 10 µM.
In turn, `CC(C)n1c(Cn2nc(I)c3c(N)ncnc32)cc2cccc(F)c2c1=O` [Compound 117] yielded an IC50 in assay [1] of under 10 µM.
On to `Cc1cccc2cc(Cn3nc(C#CC4CC4)c4c(N)ncnc43)n(-c3ccccc3F)c(=O)c12` [Compound 4], for which the figures for the IC50 in assay [3] and in assay [1] were over 10 µM and under 1 µM, respectively.
`Cc1cccc2cc(Cn3nc(-c4ccc5nc(N)[nH]c5c4)c4c(N)ncnc43)n(-c3ccccc3)c(=O)c12` [Compound 302]: the IC50 in assay [3] and in assay [1] was under 0.1 µM in each case.
For `CC(C)n1c(Cn2nc(-c3cc(O)cc(F)c3)c3c(N)ncnc32)cc2cccc(Cl)c2c1=O` [Compound 138], in assay [1], the half-inhibitory concentration (IC50) was under 0.1 µM.
Same read-out and setting: the figure for `Cc1cccc2cc(Cn3nc(-c4cn[nH]c4)c4c(N)ncnc43)n(C3CCN(C)CC3)c(=O)c12` [Compound 226] is under 1 µM; for `Nc1ncnc2c1c(-c1cccc(O)c1)nn2Cc1cc2cccc(F)c2c(=O)n1-c1ccccc1F` [Compound 143] it is under 1 µM; for `Nc1ncnc2c1c(I)nn2Cc1cc2cccc(F)c2c(=O)n1-c1ccccc1F` [Compound 132] it is under 10 µM.
As for `Cc1ccccc1-n1c(Cn2nc(C#C[C@@H](C)O)c3c(N)ncnc32)cc2ccccc2c1=O` [Compound 32], the 50% inhibitory concentration (IC50) is over 10 µM in assay [2] and under 1 µM in assay [1].
On to `CNC(=O)c1nn(Cc2cc3cccc(C)c3c(=O)n2-c2ccccc2C)c2ncnc(N)c12` [Compound 305], for which the IC50 in assay [3] and in assay [1] was under 10 µM in each case.
For `CC(C)n1c(Cn2nc(-c3cccc(O)c3)c3c(N)ncnc32)cc2cccc(Cl)c2c1=O` [Compound 137], in assay [1], the IC50 was under 0.1 µM.
Compound `Cc1cccc2cc(Cn3nc(-c4cc(O)cc(F)c4)c4c(N)ncnc43)n(C3CCOCC3)c(=O)c12` [Compound 128] had an IC50 in assay [1] of under 0.1 µM.
Take `Cc1cccc2cc(Cn3nc(I)c4c(N)ncnc43)n(-c3ccccc3F)c(=O)c12` [Compound 2]: the IC50 was under 1 µM in assay [3] and under 0.1 µM in assay [1].
With `Cc1cccnc1-n1c(Cn2nc(I)c3c(N)ncnc32)cc2ccccc2c1=O` [Compound 92], the IC50 in assay [3] and in assay [1] was under 10 µM in each case.
Regarding `CCn1c(Cn2nc(-c3cccc(O)c3)c3c(N)ncnc32)cc2cccc(C)c2c1=O` [Compound 126], the IC50 in assay [1] was under 0.1 µM.
The same measure, in the same setting: the figure for `Nc1ncnc2c1c(-c1cccc(O)c1)nn2Cc1cc2cccc(Cl)c2c(=O)n1C1CC1` [Compound 141] is under 0.1 µM.
On to `Cc1cccc2cc(C(C)Nc3ncnc4[nH]cnc34)n(C3CCOCC3)c(=O)c12` (stereo not shown) [Compound 234], for which the IC50 in assay [3] is under 1 µM; in assay [1], under 0.1 µM.
Consider `Nc1ncnc2c1c(I)nn2Cc1cc2cccc(Cl)c2c(=O)n1C1CC1` [Compound 139], for which the IC50 in assay [1] was under 0.1 µM.
On to `CCc1nn(Cc2cc3cccc(C)c3c(=O)n2-c2ccccc2)c2ncnc(N)c12` [Compound 303], for which the values for the half-inhibitory concentration (IC50) in assay [3] and in assay [1] were under 10 µM and under 0.1 µM, respectively.
For `Cc1cccc2cc([C@@H](C)Nc3ncnc4[nH]cnc34)n(C3CC3)c(=O)c12` [Compound 199], in that order: over 10 µM and over 10 µM.
With `Cc1cccc2cc(C(C)Nc3ncnc4[nH]cnc34)n(C3CCCC3)c(=O)c12` (stereo not shown) [Compound 231], the IC50 in assay [3] and in assay [1] was under 0.1 µM each time.
`Cc1cccc2cc(C(C)Nc3ncnc4[nH]cnc34)n(-c3ccccc3F)c(=O)c12` (stereo not shown) [Compound 203] came in with an IC50 in assay [2] of under 10 µM.
In the case of `C=Cc1nn(Cc2cc3cccc(C)c3c(=O)n2-c2ccccc2)c2ncnc(N)c12` [Compound 301], the values for the IC50 in assay [3] and in assay [1] were under 1 µM and under 0.1 µM, respectively.
The compound `CC(C)n1c(Cn2nc(-c3cc(O)cc(F)c3)c3c(N)ncnc32)cc2ccccc2c1=O` [Compound 136] yielded a half-maximal inhibitory concentration (IC50) in assay [1] of under 0.1 µM.
For `Cc1ccccc1-n1c(Cn2nc(C(=O)O)c3c(N)ncnc32)cc2cccc(C)c2c1=O` [Compound 297], the IC50 in assay [1] was under 1 µM.
The same measure, in the same setting: the figure for `Nc1ncnc2c1c(-c1cc(O)cc(F)c1)nn2Cc1cc2cccc(F)c2c(=O)n1-c1ccccc1F` [Compound 144] is under 0.1 µM; for `Cc1ccccc1-n1c(Cn2nc(-c3ccc(CN)cc3)c3c(N)ncnc32)cc2cccc(C)c2c1=O` [Compound 118] it is under 10 µM.
As to `Cc1cccc2cc([C@@H](C)Nc3ncnc4[nH]cnc34)n(-c3ccccc3)c(=O)c12` [Compound 195], the IC50 in assay [3] and in assay [1] was under 10 µM each time.
With `Cc1cccc2cc([C@H](C)Nc3ncnc4[nH]cnc34)n(C(C)C)c(=O)c12` [Compound 230], the IC50 in assay [3] and in assay [1] was under 0.1 µM throughout.
